According to patent publication US20220233457A1 (DAEGU CATHOLIC UNIVERSITY INDUSTRY ACADEMIC COOPERATION …, priority 2021, published 2022):
Entries after “also recorded” stand apart in the source; their conditions may differ.

Key:
[1] = system: mouse induced to have a cerebral aneurysm; assay: Trichrome staining, collagen content of cerebral artery wall; format: in vivo; conditions: via tail vein, week 4
Procedure: (§1) A male C57BL/6J mouse was purchased from Samtako Bio Korea, and, after acclimation for about 1 week, the healthy animals were housed in a polycarbonate cage with random allocation to each test group. Environmental condition for breeding includes a temperature of 22±3° C., relative humidity of 50±10%, lighting hour of 12 hours, and illuminance of 150 to 300 lux. The animals were allowed free access to food and water. Hypertension was induced by a high salt diet, unilateral nephrectomy, and subcutaneous pump infusion of angiotensin II.
(§2) Specifically, a male C57BL/6J mouse was anesthetized with isoflurane gas and the left kidney was removed by surgery. One week after the surgery, the mouse was fixed onto a nose cone, anesthetized with isoflurane gas by inhalation, and then fixed on a stereostatic system. By using a 10 μl Hamilton syringe, 10 μl of 1.0 U elastase solution was injected to the right cistern to induce cerebral aneurysm. For elastase injection, 1.0 U elastase was injected through a hole on the right skull, under anesthetization with isoflurane gas by inhalation, by pushing the syringe to a space of cerebrospinal fluid in the right bottom, 2.5 mm behind the bregma (parietal point) and 1.0 mm to the right of the center line, and elastase was injected to the depth of […]. […]

RAW 264.7 cells = assay: Cytotoxicity, MTT assay; format: cell-based; conditions: for concentration at which cell viability is lowered by cytotoxicity: MTT assay, treatment time not stated in Example 7; for melittin concentration at which cell viability was significantly decreased: RAW 264.7 cells, 0.1-4 μg/ml tested
CD68 = CD68 (macrophage marker) expression in cerebral arterial wall (IHC); format: in vivo, mouse; conditions: immunohistochemistry staining, levels 0 to 2; compared to diseased group (D)
Procedure: as §1
Specifically, a male C57BL/6J mouse was anesthetized with isoflurane gas and the left kidney was removed by surgery. One week after the surgery, the mouse was fixed onto a nose cone, anesthetized with isoflurane gas by inhalation, and then fixed on a stereostatic system. By using a 10 μl Hamilton syringe, 10 μl of 1.0 U elastase solution was injected to the right cistern to induce cerebral aneurysm. […]
(§3) By using the brain tissues harvested in above Example 2, a change in the expression level of MCP-1 and CD68 in the cerebral arterial wall was determined by immunohistochemistry (IHC) staining. The result was classified into level 0 to level 2 and subjected to statistical analysis, while it was measured by real-time PCR and Western blot.

MMP-9 = MMP-9 expression in cerebral arterial wall (IHC, real-time PCR, Western blot); format: in vivo, mouse; conditions: compared to diseased group (D); for expression level of MMP-9 protein: Western blot; for MMP-9 expression in the cerebral arterial wall: immunohistochemistry staining, levels 0 to 2
Procedure: as §1
(§4) Specifically, a male C57BL/6J mouse was anesthetized with isoflurane gas and the left kidney was removed by surgery. One week after the surgery, the mouse was fixed onto a nose cone, anesthetized with isoflurane gas by inhalation, and then fixed on a stereostatic system. By using a 10 μl Hamilton syringe, 10 μl of 1.0 U elastase solution was injected to the right cistern to induce cerebral aneurysm. For elastase injection, 1.0 U elastase was injected through a hole on the right skull, under anesthetization with isoflurane gas by inhalation, by pushing the syringe to a space of cerebrospinal fluid in the right bottom, 2.5 mm behind the bregma (parietal point) and 1.0 mm to the right of the center line, and elastase was injected to the depth of […].
(§5) After that, to have a continuous infusion of angiotensin II, an osmotic pump was subcutaneously inserted (1000 ng/kg/min) and cerebral aneurysm was induced by performing a high salt diet (8% NaCl, Enbigo) for 14 days (FIG. 2).
(§6) To the all test groups, the pharmaceutical was administered in an amount of 0.1 ml.
By using the brain tissues harvested in above Example 2, a change in the expression level of MMP-9 in the cerebral arterial wall was determined by immunohistochemistry (IHC) staining. The result was classified into level 0 to level 2 and subjected to statistical analysis, while it was measured by real-time PCR and Western blot.
(§7) For the real-time PCR performed in above Examples 4 to 6, the primers described in the following Table 1 were used.

[2] = system: mouse induced to have a cerebral aneurysm; assay: H&E staining of cerebral arteries (diameter, thickness) in animal model induced to have a cerebral aneurysm; format: in vivo; conditions: compared to diseased group (D); via tail vein, 5 times every three days; brain harvested at week 4
Procedure: as §1, §4, §5
To the all test groups, the pharmaceutical was administered in an amount of 0.1 ml. […]
According to the visualization of cell nucleus, cytoplasm, and extracellular matrix by H&E staining of cerebral artery tissues, a change in the structure and shape of the cerebral artery was analyzed. To examine a change in the brain arterial wall, an immunohistochemical microscopic image was scanned and the diameter and thickness of the artery were measured by using Case Viewer software.

NFκB = NFκB expression in cerebral arterial wall (real-time PCR, Western blot); format: in vivo, mouse; conditions: compared to group induced to have cerebral aneurysm; for expression level of NFκB protein: Western blot; for expression level of NFκB gene: real-time PCR
TNF-α = TNF-α expression in cerebral arterial wall (IHC, real-time PCR, Western blot); format: in vivo, mouse; conditions: for expression level of TNF-α protein: Western blot; for expression level of TNF-α protein / expression level of TNF-α gene: compared to group induced to have cerebral aneurysm; for expression level of TNF-α in cerebral arterial wall: immunohistochemistry staining, levels 0 to 2, compared to diseased group (D); for expression level of TNF-α gene: real-time PCR
Procedure: as §1, §4, §5, §6
By using the brain tissues harvested in above Example 2, a change in the expression level of TNF-α in the cerebral arterial wall was determined by immunohistochemistry (IHC) staining. The result was classified into level 0 to level 2 and subjected to statistical analysis, while it was measured by real-time PCR and Western blot assays.
as §7

MCP-1 = MCP-1 expression in cerebral arterial wall (IHC, real-time PCR, Western blot); format: in vivo, mouse; conditions: compared to diseased group (D); for expression level of MCP-1 protein: Western blot; for expression level of MCP-1 in the cerebral arterial wall: immunohistochemistry staining, levels 0 to 2
Procedure: as §1, §4, §5, §6, §3, §7

[3] = Stability of melittin solution on storage; format: physicochemical; conditions: 0.36 mM (=1.0 mg/ml) melittin solution, 4° C. for 8 weeks
[4] = system: mouse induced to have a cerebral aneurysm; assay: Verhoff Van Gieson staining, elastin content of cerebral arterial wall; format: in vivo; conditions: healthy group 37.6±8.8%, diseased group 5.9±3.7%; via tail vein; week 4
Procedure: as §1, §2
Elastin content was analyzed by Verhoff Van Gieson staining technique.

mouse blood = assay: Hemolysis test; format: cell-based; conditions: at 50 μg/mL

Row | Compound | concentration at which cell viability is lowered by cytotoxicity (RAW 264.7 cells) [ng/mL] | expression level of CD68 in the cerebral arterial wall (CD68) | expression level of MMP-9 protein (MMP-9) | MMP-9 expression in the cerebral arterial wall (MMP-9) | thickness of cerebral arteries [2] | expression level of NFκB protein (NFκB) | expression level of NFκB gene (NFκB) | expression level of TNF-α protein (TNF-α) | expression level of TNF-α in cerebral arterial wall (TNF-α) | expression level of TNF-α gene (TNF-α) | expression level of MCP-1 protein (MCP-1) | expression level of MCP-1 in the cerebral arterial wall (MCP-1) | elastin content [4] [%] | further results
1 | CC[C@H](C)[C@H](NC(=O)CN)C(=O)NCC(=O)N[C@@H](C)C(=O)N[C@H](C(=O)N[C@@H](CC(C)C)C(=O)N[C@@H](CCCCN)C(=O)N[C@H](C(=O)N[C@@H](CC(C)C)C(=O)N[C@H](C(=O)N[C@H](C(=O)NCC(=O)N[C@@H](CC(C)C)C(=O)N1CCC[C@H]1C(=O)N[C@@H](C)C(=O)N[C@@H](CC(C)C)C(=O)N[C@H](C(=O)N[C@@H](CO)C(=O)N[C@@H](Cc1c[nH]c2ccccc12)C(=O)N[C@H](C(=O)N[C@@H](CCCCN)C(=O)N[C@@H](CCCNC(=N)N)C(=O)N[C@@H](CCCCN)C(=O)N[C@@H](CCCNC(=N)N)C(=O)N[C@@H](CCC(N)=O)C(=O)N[C@@H](CCC(N)=O)C(N)=O)[C@@H](C)CC)[C@@H](C)CC)[C@@H](C)O)[C@@H](C)O)C(C)C)C(C)C [MEL, melittin] | ≥ 500 | suppressed | lower | suppressed | increase | lower | lower | lower | suppressed | lower | lower | suppressed | 19.7±7.8 | collagen content compared to the diseased group (D) ([1]; statistical comparison with diseased group): no statistical difference; stability of solution [3]: stably maintained
2 | MeLioN: iron oxide nanoparticle loaded with melittin, formed by linking iron oxide nanoparticle, L-arginine, and melittin | > 4000 | suppressed | lower | suppressed | increase; also recorded: significantly greater | lower | lower | lower | suppressed | lower | lower | suppressed | 34.9±6.2 | collagen content ([1]; normal group 8.7±3.8%, diseased group 32.0±5.5%): 12.6±5.1%; melittin concentration at which cell viability was significantly decreased (RAW 264.7 cells; 12 h treatment): > 4 µg/mL; melittin concentration at which cell viability was significantly decreased (RAW 264.7 cells; 24 h treatment): > 4 µg/mL; expression level of MMP-9 gene (MMP-9; real-time PCR): lower; Hemolysis (mouse blood): approximately 10%; diameter of cerebral arteries [2]: statistically significant decrease; also recorded: significantly smaller; expression level of MCP-1 gene (MCP-1; real-time PCR): lower
